Reference: patent publication US20230108934A1, “Stabilizing Camptothecin Pharmaceutical Compositions” (Ipsen Biopharm Ltd., priority 2015, published 2023)
Read-outs that look alike come from different tables or passages of the source.

How the values were obtained:
[1] = Solubility determination of irinotecan sucrosofate in water; type: physicochemical; details: deionized water, 4-6° C., 22 hours
Experimental: An amount of 1.64 g of irinotecan hydrochloride trihydrate was added to 160 mL of water acidified with 0.008 mL of 1 N HCl, and heated on a 65° C. water bath with stirring until the drug was dissolved. Five mL of 0.46 M (based on sulfate concentration) triethylammonium sucrosofate were added with intensive stirring, and stirred for five minutes more. […] The precipitate was separated by centrifugation, and the supernatant solution was discarded. The pellet was resuspended in five volumes of deionized water, and precipitated by centrifugation; this washing step was repeated two more times until the pH of the suspension was about 5.8. […] An aliquot of the product was solubilized in 1 N HCl and analyzed for irinotecan (by spectrophotometry at 365 nm in 70% aqueous isopropanol-0.1 N HCl) and for sulfate after hydrolysis in a diluted (1:4) perchloric acid using a barium sulfate turbidimetric assay. […] The samples were incubated with agitation at 4-6° C. for 22 hours, the solid material was removed by centrifugation for 10 min at 14000 g, and the supernatant fluid was analyzed for irinotecan by spectrophotometry.

[2] = cited from earlier work

concentration of irinotecan in solution ([1]; final drug salt concentration 0.93 mg/mL) [micro-g/mL] | concentration of irinotecan in solution ([1]; final drug salt concentration 1.85 mg/mL) [micro-g/mL] | concentration of irinotecan in solution ([1]; final drug salt concentration 3.71 mg/mL) [micro-g/mL] | Structure (SMILES) | irinotecan in the more active lactone form ([2]; pH 6.0) | irinotecan in the more active lactone form ([2]; pH 6.5) | irinotecan in the more active lactone form ([2]; pH 7.5)
58.9±0.90 | 63.2±0.6 | 63.4±1.3 | CCc1c2c(nc3ccc(OC(=O)N4CCC(N5CCCCC5)CC4)cc13)-c1cc3c(c(=O)n1C2)COC(=O)[C@]3(O)CC [irinotecan sucrosofate] | – | – | –
– | – | – | CCc1c2c(nc3ccc(OC(=O)N4CCC(N5CCCCC5)CC4)cc13)-c1cc3c(c(=O)n1C2)COC(=O)[C@]3(O)CC [irinotecan] | about 85% | about 65% | about 15%
